# Test results as given in PubChem BioAssay AID2351 (The Scripps Research Institute Molecular Screening Center, 2010).
# Active and inactive are the calls of the source. How the calls were made is not given here.
# Target: Sphingosine 1-phosphate receptor 1 (Homo sapiens) (UniProt P21453)
# Test: PubChem AID 2351
# Conditions: S1P1-expressing cells, fluorescence antagonist assay
# Chain of Sphingosine 1-phosphate receptor 1 (Homo sapiens) (P21453 whole entry, looked up): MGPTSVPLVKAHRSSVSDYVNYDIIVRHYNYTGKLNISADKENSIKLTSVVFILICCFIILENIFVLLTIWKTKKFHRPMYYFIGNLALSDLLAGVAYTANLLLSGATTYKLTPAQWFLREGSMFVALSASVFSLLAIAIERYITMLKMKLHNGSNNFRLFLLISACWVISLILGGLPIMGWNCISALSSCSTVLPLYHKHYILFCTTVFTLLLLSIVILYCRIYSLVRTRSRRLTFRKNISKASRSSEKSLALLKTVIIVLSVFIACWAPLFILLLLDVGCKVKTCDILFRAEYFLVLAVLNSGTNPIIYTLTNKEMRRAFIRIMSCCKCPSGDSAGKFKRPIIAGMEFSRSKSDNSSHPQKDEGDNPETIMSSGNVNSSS
smiles,measurement,value
Cc1cccc(C)c1NC(=O)c1ccc(-c2cc(Cl)ccc2Cl)o1,IC50,> 25 µM (inactive)
